According to US9468621B2, “Metal-salen complex compound responsive drug and intra-corporeal behavior control system for metal-salen complex compound” (IHI Corporation, priority 2011, dated 2016):
Like-named read-outs stand apart in the source and are kept apart here. Blank lines part the entries; values can stand above or below the compound they belong to.

Key:
[1] = test system: POS-1 cells (mouse osteosarcoma cells); assay: MTT cell survival assay: neutralizing cytotoxicity of the ferrous-salen complex compound; assay type: cell-based; settings: 24 hours
Method: (§1) The cells were collected 24 hours later and an MTT reagent for cell survival assay was administered, 400 μL of 0.04-mol of HCl/isopropyl alcohol was added 45 minutes later, 100 μL of the obtained mixture was dispensed to 96-well plates, and absorbance at 570 nm was measured, thereby calculating cell viability.
as §1, with “and the” for “and an”

[2] = Calcein AM fluorescence (RFU) assay of chelation of the ferrous-salen complex compound by a metal chelating agent; assay type: biochemical; settings: for EC50: Calcein AM, FIG. 1, read-out: EC50 (50% effective concentration of a maximum reaction value) of chelator, RFU recovery
Excerpt: If calcein (Calcein: fluorescent indicator) is used solely, it emits light (an RFU value increases); however, if calcein binds with a ferrous-salen complex compound, light emission diminishes (the RFU value decreases). Accordingly, if deferoxamine (deferoximine: the above-mentioned structural formula (II)) exists, iron ions of the ferrous-salen complex compound are adsorbed by the deferoxamine and ferrous-salen ligands are detached from calcein. As a result, the amount of the calcein-divalent-iron-salen complex compound decreases and the light emission […]. You can tell that as an amount of emitted light […], the metal-salen complex compound combines with the metal chelating agent.
The ferrous-salen complex compound (M=Fe, R═R′═H) indicated as the aforementioned structural formula (III) was produced based on descriptions of WO 2010/058280. […] Subsequently, 15 μM deferoxamine was administered to this ferrous-salen complex compound—calcein AM complex—and measurement was performed one hour later by using a measuring device (parkinermar ARVO) (λexc=485 nm, λem=520 nm).
A 15 μM of deferoxamine and vitamin C was administered to the ferrous-salen complex compound—calcein AM complex—which was produced in Example 1 above and measurement was performed one hour later by using the measuring device (parkinermar ARVO) (λexc=485 nm, λem=520 nm). As a result, it was also confirmed that when the ferrous-salen complex compound was added to Calcein AM, the RFU (Relative Fluorescent Unit) value was low. However, it was confirmed that when the chelator (deferoxamine and vitamin C) continued to be added, the RFU value increased.

Compound: O=C(O)c1ccc(-n2nc(-c3ccccc3O)nc2-c2ccccc2O)cc1 [deferasirox, 4-[3,5-Bis(2-hydroxyphenyl)-1,2,4-triazol-1-yl]benzoic acid]
- cell viability as chelator concentration increased (neutralization of toxicity) ([1]; 7.5 μM ferrous-salen complex compound (NBEI) plus deferasirox 0.1-15 μM, FIG. 2): increased
- deferasirox concentration at which the effect on cell viability did not change further ([1]; 7.5 μM ferrous-salen complex compound (NBEI)): ≥ 1.8 µM

- EC50 ([2]; ferrous-salen complex compound (NBEI) 10 μM): 966 nM
- EC50 ([2]; ferrous-salen complex compound (NBEI) 50 μM): 1630 nM
Compound: CC(=O)N(O)CCCCCNC(=O)CCC(=O)N(O)CCCCCNC(=O)CCC(=O)N(O)CCCCCN [deferoxamine, (N-(5-aminopentyl)-N-hydroxy-N′-[5-(N-hydroxy-3-{[5-(N-hydroxyacetamido)pentyl]carbamoyl}propanamido)pentyl]butanediamide)]
- RFU (Relative Fluorescent Unit) value when the chelator continued to be added ([2]; chelator added to ferrous-salen complex compound-calcein AM complex, measured one hour later, λexc=485 nm, λem=520 nm): increased

Compound: [Fe+2].[O-]c1ccccc1C=NCCN=Cc1ccccc1[O-] [ferrous-salen complex compound]
- RFU (Relative Fluorescent Unit) value when added to Calcein AM ([2]; ferrous-salen complex compound added to Calcein AM, no chelator): low
- cell viability ([1]; 7.5 μM, control = 100%, FIG. 2): decreased
